One assay has as its target T1, NTF2L domain of G3BP1 (Homo sapiens, UniProt Q13283).
T1 construct: made in house; host or cells: E. coli BL21 (DE3)
The assay is described as follows: SPR binding of compounds to sensor-immobilized G3BP1. Conditions: for Kd: equilibrium analysis, 1:1 binding model, 25°C, pH 7.4; for Kd of inactive enantiomer relative to active compound: SPR, same domain. How it is done: Binding affinity for G3BP1 was measured by SPR assay using a Biacore 8K instrument (Cytiva) at 25°C at pH 7.4 (20 mM Tris, 300 mM NaCl, 0.05% Tween-20, 2% DMSO) using neutravidin sensor chips. The binding of solution phase molecules was measured to sensor-bound biotinylated, AVI-tagged versions of the NTF2L domain of G3BP1. G3BP1 was captured on the sensor surface at the beginning of each experiment at a level of ∼1,000 RU. A neutravidin-only surface was used as a reference. Binding affinity was measured by equilibrium analysis of double-reference subtracted data performed at seven different analyte concentrations. A 1:1 binding model was used to estimate affinity; the maximum binding response was typically about 90% of the theoretical maximum for a 1:1 interaction given the size of the protein and analytes. Binding at the end of a 90-s association phase was measured; data were only used where equilibrium binding was reached. No regeneration was performed between binding cycles as all tested molecules dissociated completely from the sensor at the end of each cycle. Estimation of binding affinity by kinetic analysis was not performed as kinetic constants were beyond the range that could be reliably measured by the instrumentation.
(In SPR one partner is held on a chip, and binding of the other changes the refractive index at the surface.)

The subject of assay [1] is stress granule formation in U2OS cells. The assay is described as follows: 24 h pretreatment followed by arsenite, immunofluorescence. The format is cell-based. Conditions: then 500 μM NaAsO2 for 30 min.
The subject of assay [2] is VCP A232E-induced stress granules in U2OS cells with tdTomato-tagged endogenous G3BP1. The assay is described as follows: Dissolution of stress granules induced by GFP-VCP A232E expression. The format is cell-based. Conditions: 50 μM for 30 min; automated puncta tracking for G3Ia, manual blinded cell tracking for G3Ib. How it is done: U2OS cells with knock-in of G3BP1-tdTomato ([Yang et al., 2020]) were seeded into 96-well plates (3904; Corning). Either GFP-VCP-A232E or GFP-FUS-R495X were transfected into cells using ViaFect transfection reagent (Promega) 24 h prior to the start of the experiment. For samples to be treated with compounds G3Ia or G3Ia′, Hoechst (1:5,000; Biotium) was added and incubated for 30 min prior to the start of the experiment, washed once with PBS, and the media was changed to 100 μl FluoroBrite DMEM media (Gibco) upon starting the experiment. Imaging of plates was performed on a Cytation C10 spinning disk confocal (BioTek) with a Hamamatsu Orca-Flash 4.0 camera using Gen5 software (version 3.11). Imaging was performed through an Olympus Plan Apo 40× 0.6 NA dry objective with an adjustable collar set to 0.5 μm thickness. Laser autofocus prior to imaging the tdTomato channel was utilized for each image. The temperature was maintained at 37°C on the instrument and the cells were supplied with 5% CO2. A 7 × 7 tilescan was taken at the center of each well, capturing the tdTomato and GFP channels (and Hoechst when present). After completing the tilescan, 100 μl FluoroBrite with 100 μM (2×) G3I compound (vortexed for 5 s) was added to each well and incubated for 20 min before starting another round of imaging in the same locations as the first round. Samples treated with G3Ib or G3Ib′ were analyzed manually, scoring each cell with spontaneous granules for the presence or absence of granules following treatment with the compound. For experiments in which G3I compounds were pretreated prior to transfection, 50 μM of indicated compound or vehicle control were added to U2OS cells 20 min prior to the addition of the transfection reagent. […]
Samples treated with G3Ia or G3Ia′ were analyzed using an automated pipeline. […]

Assay [3] relates to G3BP1- and FUS R495X-positive puncta in U2OS cells with tdTomato-tagged endogenous G3BP1. The assay is described as follows: Dissolution of puncta induced by FUS R495X expression. Conditions: for G3BP1 puncta eliminated / reduction in number of puncta positive for FUS R495X: FUS R495X-transfected cells, 50 μM for 30 min; for extraction of FUS R495X from granules: result in words. The format is cell-based. How it is done: U2OS cells with knock-in of G3BP1-tdTomato ([Yang et al., 2020]) were seeded into 96-well plates (3904; Corning). Either GFP-VCP-A232E or GFP-FUS-R495X were transfected into cells using ViaFect transfection reagent (Promega) 24 h prior to the start of the experiment. For samples to be treated with compounds G3Ia or G3Ia′, Hoechst (1:5,000; Biotium) was added and incubated for 30 min prior to the start of the experiment, washed once with PBS, and the media was changed to 100 μl FluoroBrite DMEM media (Gibco) upon starting the experiment. Imaging of plates was performed on a Cytation C10 spinning disk confocal (BioTek) with a Hamamatsu Orca-Flash 4.0 camera using Gen5 software (version 3.11). Imaging was performed through an Olympus Plan Apo 40× 0.6 NA dry objective with an adjustable collar set to 0.5 μm thickness. Laser autofocus prior to imaging the tdTomato channel was utilized for each image. The temperature was maintained at 37°C on the instrument and the cells were supplied with 5% CO2. A 7 × 7 tilescan was taken at the center of each well, capturing the tdTomato and GFP channels (and Hoechst when present). After completing the tilescan, 100 μl FluoroBrite with 100 μM (2×) G3I compound (vortexed for 5 s) was added to each well and incubated for 20 min before starting another round of imaging in the same locations as the first round. Samples treated with G3Ib or G3Ib′ were analyzed manually, scoring each cell with spontaneous granules for the presence or absence of granules following treatment with the compound. For experiments in which G3I compounds were pretreated prior to transfection, 50 μM of indicated compound or vehicle control were added to U2OS cells 20 min prior to the addition of the transfection reagent. After 24 h of transfection, the cells were washed with PBS, fixed in 4% formaldehyde, and incubated with Hoechst (1:5,000; Biotium) in PBS for 30 min prior to the start of the experiment, washed once with PBS, and at room temperature imaging on the Cytation C10 spinning disk confocal was performed as described above.
Samples treated with G3Ia or G3Ia′ were analyzed using an automated pipeline. Segmentation was performed in both ilastik and Cellpose 2.0. Nuclear segmentation using the Hoechst channel and granule segmentation in both GFP and tdTomato channels was performed via pixel classification in ilastik using small cropped portions of the tilescan as the training dataset for each. Individual cell segmentation was performed in Cellpose 2.0 by inputting a merged RGB of the Hoechst and G3BP1-tdTomato channels. The Cellpose output was then eroded by one pixel and set as a binary mask in Fiji. The original three raw channels, three output masks from ilastik, and the one mask generated from Cellpose were all inputted into CellProfiler to generate per-cell measurements for granules as defined by GFP or tdTomato.

SMILES strings stand for the structures.

T1 sequence (Q13283 11-133 limits assumed): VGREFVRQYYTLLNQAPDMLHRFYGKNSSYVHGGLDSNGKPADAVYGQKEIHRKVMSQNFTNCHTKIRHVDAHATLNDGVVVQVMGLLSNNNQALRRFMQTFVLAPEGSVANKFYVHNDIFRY

Take `COCCC(NC(=O)C(C)NC(=O)C(NC(=O)C(NC(=O)C(F)CC(C)(C)C)C(C)(C)O)C(C)c1ccccc1)C(=O)N(C)Cc1ccccc1` (stereo not shown) [G3Ia]: binding on NTF2L domain of G3BP1 was put at a Kd of 0.54 µM. Moreover, in assay [1] (5 μM), the “stress granule formation after 24 h pretreatment” value (“stress granule formation” for short) is on record as “no substantial impairment”. Moreover, in assay [1] (20 μM), the “stress granule formation” value was “no substantial impairment”. In addition, the “stress granule formation” value in assay [1] (50 μM) is listed as “inhibited stress granule formation”. Further, the “dissolution of VCP A232E-induced stress granules” value (from here on “dissolution”) in assay [2] was 83%. For the same compound, in assay [3], the G3BP1 puncta eliminated worked out at 92%, the “reduction in number of puncta positive for FUS R495X” value is recorded as 3% and the “extraction of FUS R495X from granules” value is recorded as “unable to extract FUS R495X from granules”.

Take `COCCC(NC(=O)C(C)NC(=O)C(NC(=O)C(NC(=O)C(F)CC(C)(C)C)C(C)(C)O)C(C)c1ccccc1)C(=O)N(C)Cc1ccccc1` (stereo not shown) [G3Ia′]: at NTF2L domain of G3BP1, the “Kd of inactive enantiomer relative to active compound” value is listed as over 100 fold and the Kd came to 75.5 µM. Besides, in assay [1] (indicated doses), the “stress granule formation” value was “no discernable effects”. In assay [3], the G3BP1 puncta eliminated is listed as 6% and the “reduction in number of puncta positive for FUS R495X” value stood at 4%.

On to `CC(NC(=O)C(NC(=O)C(NC(=O)CCC(C)(C)C)C(C)(C)O)C(C)c1ccccc1)C(=O)N1CCCC1c1ccccc1` (stereo not shown) [G3Ib], for which the dissociation constant (Kd) on NTF2L domain of G3BP1 came to 0.15 µM. For the same compound, the “stress granule formation” value in assay [1] (20 μM) and in assay [1] (50 μM) was “nearly completely inhibited” each time. Also, in assay [2], the “dissolution” value was determined as 69%. Moreover, in assay [3], the “extraction of FUS R495X from granules” value is recorded as “unable to extract FUS R495X from granules”.

As to `CC(NC(=O)C(NC(=O)C(NC(=O)CCC(C)(C)C)C(C)(C)O)C(C)c1ccccc1)C(=O)N1CCCC1c1ccccc1` (stereo not shown) [G3Ib′], at NTF2L domain of G3BP1, the “Kd of inactive enantiomer relative to active compound” value is reported as over 100 fold and binding was put at a Kd of 44.5 µM. The “stress granule formation” value in assay [1] (indicated doses) is “no discernable effects”. For the same compound, the “dissolution” value in assay [2] came out at 6%.

The Kd is the concentration at which binding is half-saturated. Lower therefore signals higher affinity.

The values are drawn from PMC10824102, “Identification of small molecule inhibitors of G3BP-driven stress granule formation” (The Journal of Cell Biology, 2024).
